In US11220492B2, “Quinazoline-pyrazole derivatives for the treatment of cancer-related disorders” (ARCUS BIOSCIENCES, INC., priority 2017, dated 2022):

Key:
[1] = molecular target: A2AR (Homo sapiens, UniProt P29274); test: A2AR potency (KB), Table 1; format: biochemical; details: read-out: Potency: A2AR KB (A2A)
[2] = molecular target: T1, A2BR (Homo sapiens, UniProt P29275); test: A2BR potency (KB), Table 1; format: biochemical
T1 sequence (P29275 1-332): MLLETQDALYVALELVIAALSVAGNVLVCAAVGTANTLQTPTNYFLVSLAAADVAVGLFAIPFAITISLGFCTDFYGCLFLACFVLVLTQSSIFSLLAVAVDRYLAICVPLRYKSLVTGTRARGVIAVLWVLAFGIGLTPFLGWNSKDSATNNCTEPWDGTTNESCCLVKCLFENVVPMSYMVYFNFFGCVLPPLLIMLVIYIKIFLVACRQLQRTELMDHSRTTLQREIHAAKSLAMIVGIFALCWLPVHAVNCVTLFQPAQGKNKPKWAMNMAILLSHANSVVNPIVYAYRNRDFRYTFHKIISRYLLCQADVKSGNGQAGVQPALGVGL

Chain of A2AR (P29274 whole entry): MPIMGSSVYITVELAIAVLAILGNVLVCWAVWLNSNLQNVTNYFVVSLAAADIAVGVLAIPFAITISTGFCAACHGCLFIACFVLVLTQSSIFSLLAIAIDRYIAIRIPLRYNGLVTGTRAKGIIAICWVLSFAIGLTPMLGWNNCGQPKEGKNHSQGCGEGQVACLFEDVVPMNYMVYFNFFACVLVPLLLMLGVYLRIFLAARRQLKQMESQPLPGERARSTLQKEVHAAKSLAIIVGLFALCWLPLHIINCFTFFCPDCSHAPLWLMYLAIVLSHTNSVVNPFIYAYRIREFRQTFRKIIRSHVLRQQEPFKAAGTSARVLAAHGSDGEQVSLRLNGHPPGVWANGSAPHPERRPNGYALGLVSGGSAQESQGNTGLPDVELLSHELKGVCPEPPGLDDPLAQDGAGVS

Row | Kb [1] [nM] | Kb [2] [nM] | SMILES
1 | < 100 | 100 to 1000 | COc1c(F)ccc2c(-c3cn(Cc4ccn(C(C)(C)CO)n4)nn3)nc(N)nc12
2 | < 100 | < 100 | CC(C)n1nccc1Cn1cc(-c2nc(N)nc3c(Cl)cccc23)nn1
3 | < 100 | 100 to 1000 | COc1cccc2c(-c3cn(Cc4ccnn4CC4CCCO4)nn3)nc(N)nc12 (stereo not shown)
4 | < 100 | < 100 | COc1cccc2c(-c3cn(Cc4ccn(CC5CCOCC5)n4)nn3)nc(N)nc12
5 | < 100 | < 100 | Nc1nc(-c2cn(Cc3ccn(C4CC4)n3)nn2)c2ccc(F)c(F)c2n1
6 | < 100 | < 100 | COCC(C)(C)n1ccc(Cn2cc(-c3nc(N)nc4c(OC)cccc34)nn2)n1
7 | < 100 | 100 to 1000 | COc1cccc2c(-c3cn(Cc4ccn(C(C)C(=O)O)n4)nn3)nc(N)nc12 (stereo not shown)
8 | < 100 | < 100 | CCn1ccc(Cn2cc(-c3nc(N)nc4c(OC)cccc34)nn2)n1
9 | < 100 | < 100 | COc1c(F)ccc2c(-c3cn(Cc4ccnn4C(C)C)nn3)nc(N)nc12
10 | < 100 | < 100 | COc1cccc2c(-c3cn(Cc4ccnn4C(C)C)nn3)nc(N)nc12
11 | < 100 | < 100 | COc1cccc2c(-c3cn(Cc4ccn(CC(=O)NCC5(O)CC5)n4)nn3)nc(N)nc12
12 | < 100 | < 100 | COc1ccc2c(-c3cn(Cc4ccn(C(C)(C)CO)n4)nn3)nc(N)nc2c1
13 | < 100 | < 100 | COc1cccc2c(-c3cn(Cc4cc[nH]n4)nn3)nc(N)nc12
14 | < 100 | < 100 | COc1cccc2c(-c3cn(Cc4ccnn4C)nn3)nc(N)nc12
15 | < 100 | < 100 | COc1cccc2c(-c3cn(Cc4ccn(C(C)C)n4)nn3)nc(N)nc12
16 | < 100 | < 100 | N#Cc1ccc2c(-c3cn(Cc4ccn(C5CC5)n4)nn3)nc(N)nc2c1
17 | < 100 | < 100 | COc1cccc2c(-c3cn(Cc4ccn(C5CC5)n4)nn3)nc(N)nc12
18 | < 100 |  | COc1cccc2c(-c3cn(Cc4ccnn4CCO)nn3)nc(N)nc12
19 | < 100 | < 100 | COc1cccc2c(-c3cn(Cc4ccn([C@H]5CCOC5)n4)nn3)nc(N)nc12
20 | < 100 |  | COc1cccc2c(-c3cn(Cc4ccn(CCO)n4)nn3)nc(N)nc12
21 | < 100 | 100 to 1000 | CCOc1cccc2c(-c3cn(Cc4ccn(C5CC5)n4)nn3)nc(N)nc12

Row | Kb [1] [nM] | Kb [2] [nM] | SMILES
22 | < 100 | < 100 | CC(C)(O)Cn1ccc(Cn2cc(-c3cc(N)nc4c(F)cccc34)nn2)n1
23 | < 100 | < 100 | COc1cccc2c(-c3cn(Cc4ccn([C@@H]5CCOC5)n4)nn3)nc(N)nc12
24 | < 100 | < 100 | COc1c(F)ccc2c(-c3cn(Cc4ccn(C(C)C)n4)nn3)nc(N)nc12
25 | < 100 | < 100 | COc1cccc2c(-c3cn(Cc4ccn(C5CC5)n4)nn3)cc(N)nc12
26 | < 100 | < 100 | COc1cccc2c(-c3cn(Cc4cc(C(C)(C)O)[nH]n4)nn3)nc(N)nc12
27 | < 100 | < 100 | CC(C)n1ccc(Cn2cc(-c3nc(N)nc4c(Cl)cccc34)nn2)n1
28 | < 100 | < 100 | COc1cccc2c(-c3cn(Cc4ccn(C(C)(C)CO)n4)nn3)nc(N)nc12
29 | < 100 | 100 to 1000 | COc1cccc2c(-c3cn(Cc4ccn(CC(=O)N[C@@H]5CCOC5)n4)nn3)nc(N)nc12
30 | < 100 | 100 to 1000 | CCOc1cccc2c(-c3cn(Cc4ccn(C(C)C)n4)nn3)nc(N)nc12
31 | < 100 | < 100 | COc1cccc2c(-c3cn(Cc4ccn(C(C)C(N)=O)n4)nn3)nc(N)nc12 (stereo not shown)
32 | < 100 | 100 to 1000 | COc1cccc2c(-c3cn(Cc4ccn(CC(=O)N[C@H]5CCOC5)n4)nn3)nc(N)nc12
33 | < 100 | < 100 | CC(C)n1ccc(Cn2cc(-c3cc(N)nc4c(F)cccc34)nn2)n1
34 | < 100 | < 100 | COc1cccc2c(-c3cn(Cc4ccn(CC(C)(C)O)n4)nn3)nc(N)nc12
35 | < 100 | < 100 | Nc1nc(-c2cn(Cc3ccn[nH]3)nn2)c2cccc(F)c2n1
36 | < 100 | < 100 | COc1cccc2c(-c3cn(Cc4ccn(CCN5CCOCC5=O)n4)nn3)nc(N)nc12
37 | < 100 | < 100 | COc1cccc2c(-c3cn(Cc4ccn(C)n4)nn3)nc(N)nc12
38 | < 100 | < 100 | CC(C)(CO)n1ccc(Cn2cc(-c3nc(N)nc4c(F)cccc34)nn2)n1
39 | < 100 | < 100 | COc1cccc2c(-c3cn(Cc4ccn(CC(N)=O)n4)nn3)nc(N)nc12
40 | < 100 | 100 to 1000 | COc1cccc2c(-c3cn(Cc4ccn(CCN5CCCC5=O)n4)nn3)nc(N)nc12
41 | 100 to 1000 | 100 to 1000 | COc1cccc2c(-c3cn(Cc4ccn(CC(=O)O)n4)nn3)nc(N)nc12
42 | < 100 | < 100 | COc1cccc2c(-c3cn(Cc4ccn(CC(=O)N5CC(O)C5)n4)nn3)nc(N)nc12
